Laboratory results taken from the supplement of paper PMC11451515.

Tests used:
Test in all cases: AUC of viability dose-response curve (% viability x log10 dose units); higher = less sensitive
Conditions in all cases: 48 h
NOMO1 = tested on: NOMO1
How it was run: (§1)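 Viability of medium-adapted leukemia cells was measured by CellTiter-Glo One luminescence after 48 h at 37°C with library compounds in DMSO. Doses were 11 threefold steps from 47 μM to 0.79 nM, in 1536-well plates at 500 or 1000 cells/well. Signals were normalised per plate to DMSO and cell-free wells and fitted with a four-parameter log-logistic model on log10 dose. Area under the curve was integrated by trapezoidal rule, with curves exceeding full viability scaled and failed quality-control curves removed.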

SEM cells = tested on: SEM cells
How it was run: as §1

P12-Ichikawa = tested on: P12-Ichikawa
How it was run: as §1

[1] = RPMI 5 mM glucose + 10% dialyzed FBS

Compound | AUC of viability dose-response curve (NOMO1; HPLM + 10% dialyzed FBS) | AUC of viability dose-response curve (NOMO1; RPMI 5 mM glucose + 10% FBS) | AUC of viability dose-response curve (NOMO1; [1]) | AUC of viability dose-response curve (SEM cells; HPLM + 10% dialyzed FBS) | AUC of viability dose-response curve (SEM cells; RPMI 5 mM glucose + 10% FBS) | AUC of viability dose-response curve (SEM cells; [1]) | AUC of viability dose-response curve (P12-Ichikawa; HPLM + 10% dialyzed FBS) | AUC of viability dose-response curve (P12-Ichikawa; RPMI 5 mM glucose + 10% FBS) | AUC of viability dose-response curve (P12-Ichikawa; [1])
CC(C)(C)OC(=O)N[C@H]1CCCCC/C=C\[C@@H]2C[C@@]2(C(=O)N[S+](=O)([O-])C2CC2)NC(=O)[C@@H]2C[C@@H](OC(=O)N3Cc4cccc(F)c4C3)CN2C1=O | 457 | 468 | 472 | 401 | 441 | 466 | 468 | 467 | 459
C[C@]12CC[C@@H]3c4ccc(O)cc4CC[C@H]3[C@@H]1[C@@H](O)[C@@H](O)[C@@H]2O | 461 | 471 | 468 | 465 | 448 | 461 | 468 | 457 | 450
CC(C)C1NC(=O)C(NC(=O)C2=C3\N=C\4/C(=C(C)\C(=O)\C(=C4C(=O)NC5C(C)OC(=O)C(C(C)C)N(C)C(=O)CN(C)C(=O)C6CCCN6C(=O)C(NC5=O)C(C)C)N)OC3=C(C)C=C2)C(C)OC(=O)C(C(C)C)N(C)C(=O)CN(C)C(=O)C7CCCN7C1=O (stereo unspecified) | 27.9 | 28.1 | 23 | 26.3 | 20.8 | 23.4 | 31.2 | 24.5 | 38
O=C(O)Cn1nnc(-c2cc(N3CCC(Oc4cc(F)ccc4Br)CC3)no2)n1 | 357 | 340 | 361 | 422 | 464 | 459 | 413 | 415 | 428
CN[C@@H](C)[C@H]1[C@H](O)C[C@@]2(C)[C@@H]3CC[C@H]4C(C)(C)[C@@H](NC)CC[C@@]45C[C@@]35CC[C@]12C | 445 | 454 | 445 | 376 | 392 | 399 | 464 | 450 | 425
O=c1[nH]c(=O)n([C@H]2C[C@H](O)[C@@H](CO)O2)cc1/C=C/Br | 425 | 456 | 454 | 436 | 460 | 469 | 357 | 472 | 477
CC(C)c1noc(N2CCC(COc3ccc(-c4ccc([S+](C)(=O)[O-])cc4)nc3)CC2)n1 | 467 | 459 | 463 |  |  |  | 454 | 453 | 452
CNC(=O)c1ccc(N2C(=S)N(c3cnc(C#N)c(C(F)(F)F)c3)C(=O)C23CCC3)cc1F | 419 | 426 | 439 | 447 | 452 | 457 | 470 | 463 | 467
C[N]1C=C(C=N1)C2=C3\C=N/NC(=O)C4=C3C(=CC(=C4)NC(=O)[C@H](N)C5CCCCC5)[NH]2 | 403 | 390 | 384 | 309 | 334 | 283 | 395 | 387 | 371
CC[C@H](/C=C/[C@@H](C)[C@H]1CC[C@H]2[C@@H]3CC=C4C[C@@H](O)CC[C@]4(C)[C@H]3CC[C@]12C)C(C)C | 427 | 434 | 421 | 438 | 458 | 463 | 456 | 449 | 429
O=C1c2ccccc2-[n+]2ccc3c([nH]c4ccccc43)c21 | 385 | 398 | 390 | 291 | 332 | 311 | 403 | 405 | 407
O=C1NC(=O)/C(=C/c2ccc3nccc(-c4ccncc4)c3c2)S1 | 293 | 351 | 296 | 289 | 290 | 290 | 341 | 308 | 317
CC(C)(O)CC[C@@H](O)[C@](C)(O)[C@H]1CC[C@@]2(O)C/3=C/C(=O)[C@@H]4C[C@@H](O)[C@@H](O)C[C@]4(C)[C@H]3CC[C@]12C | 410 | 421 | 429 | 434 | 449 | 412 | 453 | 444 | 429
OC[C@H]1O[C@H]([C@H](O)[C@@H]1O)N2\C=C/C(=O)NC2=O | 448 | 429 | 455 | 463 | 447 | 450 | 473 | 456 | 466
NC\1=N\C(=O)N(\C=C1)[C@@H]2O[C@H](CO)[C@@H](O)[C@@H]2O | 186 | 201 | 154 |  |  |  | 38 | 25.6 | 39.2
CN[C@H]1CCC2=CC(=C(OC)C(=C2C/3=C/C=C(OC)\C(=O)/C=C13)OC)OC | 205 | 174 | 206 | 159 | 144 | 148 | 151 | 147 | 158
CC(C)N[C@@H]1CCn2c(=O)[nH]c3cccc(c32)[C@H]1O | 426 | 460 | 424 | 463 | 465 | 473 | 459 | 437 | 457
Clc1ccc(-c2nc3sccn3c2/C=N/OCc2ccc(Cl)c(Cl)c2)cc1 | 445 | 451 | 461 | 453 | 430 | 455 | 448 | 463 | 454
Cc1onc(-c2ccccc2Cl)c1C(=O)N[C@@H]1C(=O)N2[C@@H]1SC(C)(C)[C@@H]2C(=O)[O-] | 455 | 437 | 424 | 402 | 435 | 464 | 469 | 451 | 456
C[C@H]1COC2=C3N1\C=C(C(O)=O)/C(=O)C3=CC(=C2N4CCN(C)CC4)F | 426 | 454 | 441 | 398 | 373 | 420 | 427 | 429 | 416
CN[C@@H]1[C@@H](O)[C@@H](O[C@@H]2[C@@H](O)[C@H](O[C@H]3O[C@H](CN)[C@@H](O)[C@H](O)[C@H]3O)[C@@H](N)C[C@H]2NC(=O)[C@@H](O)CN)OC[C@]1(C)O | 452 | 457 | 440 | 453 | 463 | 468 | 457 | 449 | 411
COc1cc(OC2CCN(C)CC2)ccc1Nc1ncc2c(n1)n(C1CCCC1)c(=O)n2C | 427 | 373 | 393 | 326 | 346 | 324 | 408 | 380 | 363
CC1=C(C)C(=O)C(C(CCCCCC(=O)O)c2ccccc2)=C(C)C1=O (stereo unspecified) | 334 | 293 | 318 | 301 | 301 | 303 | 387 | 414 | 362
COc1ccc(-c2ccc3ncc4c(c3c2)n(-c2ccc(N3CCNCC3)c(C(F)(F)F)c2)c(=O)n4C)cn1 | 209 | 255 | 218 |  |  |  |  |  | 

Compound | AUC of viability dose-response curve (NOMO1; HPLM + 10% dialyzed FBS) | AUC of viability dose-response curve (NOMO1; RPMI 5 mM glucose + 10% FBS) | AUC of viability dose-response curve (NOMO1; [1]) | AUC of viability dose-response curve (SEM cells; HPLM + 10% dialyzed FBS) | AUC of viability dose-response curve (SEM cells; RPMI 5 mM glucose + 10% FBS) | AUC of viability dose-response curve (SEM cells; [1]) | AUC of viability dose-response curve (P12-Ichikawa; HPLM + 10% dialyzed FBS) | AUC of viability dose-response curve (P12-Ichikawa; RPMI 5 mM glucose + 10% FBS) | AUC of viability dose-response curve (P12-Ichikawa; [1])
N[S+]([O-])(=O)C1=C(Cl)C=C2\N=C/N[S+]([O-])(=O)C2=C1 | 465 | 470 | 475 | 380 | 426 | 418 | 459 | 456 | 468
Cc1ccccc1C(=O)c1ccc(Nc2ccc(Br)cc2N)cc1Cl | 467 | 466 | 455 |  |  |  | 454 | 461 | 441
C[C@](O)(CS(=O)(=O)c1ccc(F)cc1)C(=O)Nc1ccc(C#N)c(C(F)(F)F)c1 | 443 | 460 | 470 | 461 | 433 | 444 | 472 | 463 | 470
C[C@@H](Oc1cc(-c2cnn(C3CCNCC3)c2)cnc1N)c1c(Cl)ccc(F)c1Cl | 391 | 429 | 424 |  |  |  | 419 | 415 | 400
CC(C)c1nc(CN(C)C(=O)N[C@H](C(=O)N[C@@H](Cc2ccccc2)C[C@H](O)[C@H](Cc2ccccc2)NC(=O)OCc2cncs2)C(C)C)cs1 |  |  |  | 410 | 429 | 427 | 425 | 411 | 396
Cn1cnc2c(F)c(Nc3ccc(Br)cc3F)c(C(=O)NOCCO)cc21 |  |  |  | 392 | 382 | 363 |  |  | 
S=C(NCc1ccc2c(c1)OCO2)N1CCN(c2ncnc3c2oc2ccccc23)CC1 | 416 | 438 | 445 |  |  |  | 406 | 387 | 389
CC[C@]12CC[C@H]3[C@@H](CCC/4=C/C(=O)CC[C@H]34)[C@@H]1\C=C/[C@@]2(O)C#C | 461 | 451 | 450 | 446 | 465 | 464 | 473 | 473 | 470
CNCC(O)c1ccc(O)cc1 (stereo unspecified) | 446 | 455 | 441 | 423 | 452 | 459 | 464 | 466 | 469
C[S+](=O)([O-])Nc1ccc([N+](=O)[O-])cc1Oc1ccccc1 | 452 | 465 | 464 | 467 | 449 | 464 | 461 | 456 | 460
N[S+]([O-])(=O)C1=CC=C(NC/2=C/C(=O)C3=CC=CC=C3C2=O)C=C1 | 446 | 465 | 461 | 448 | 399 | 436 | 464 | 467 | 459
CCOC(=O)N1CCN(/[N+]([O-])=N/Oc2ccc([N+](=O)[O-])cc2C#N)CC1 | 390 | 383 | 382 | 331 | 327 | 331 | 328 | 324 | 328
COc1ccccc1OCC(O)COC(N)=O (stereo unspecified) |  |  |  | 467 | 465 | 459 | 466 | 461 | 461
C[C@]12COC(=O)C[C@@H]1CC[C@@H]1[C@@H]2CC[C@@]2(C)[C@H]1CC[C@]2(C)O | 472 | 443 | 443 | 451 | 457 | 447 | 457 | 463 | 471
O=C(C=CC#Cc1cccc(N[S+](=O)([O-])c2ccccc2)c1)NO | 367 | 374 | 371 | 354 | 358 | 352 | 353 | 345 | 346
O=C(O)C1(Cc2cccc(Nc3nccs3)n2)CCC(Oc2cccc(Cl)c2F)CC1 (stereo unspecified) | 381 | 382 | 386 | 370 | 369 | 368 | 356 | 373 | 381
c1ccc(CCCN2CCN(CCOC(c3ccccc3)c3ccccc3)CC2)cc1 | 434 | 409 | 405 |  |  |  | 431 | 432 | 406
FC1=C(C=C(C\C2=N\NC(=O)C3=C2C=CC=C3)C=C1)C(=O)N4CCN(CC4)C(=O)C5CC5 | 439 | 400 | 422 |  |  |  | 421 | 390 | 393
O=C(Nc1cccc(C(F)(F)F)c1)Nc1cc([S+](=O)([O-])NC2CC2)ccc1-c1ccsc1 |  |  |  | 466 | 399 | 454 | 466 | 465 | 460
Cc1nc2cnc3ccc(C#Cc4cccnc4)cc3c2n1-c1ccc(C(C)(C)C#N)cc1 | 264 | 259 | 268 |  |  |  | 314 | 251 | 255
N#CCNC(=O)c1ccc(-c2ccnc(Nc3ccc(N4CCOCC4)cc3)n2)cc1 |  |  |  | 405 | 412 | 394 | 447 | 442 | 434
CC(C)(C#N)c1cc(Cn2cncn2)cc(C(C)(C)C#N)c1 |  |  |  |  |  |  | 466 | 456 | 442
COCC1(CO)C(=O)C2CCN1CC2 (stereo unspecified) | 435 | 446 | 462 |  |  |  | 413 | 414 | 421
